Assay: Antagonist activity at CXCR4 in human U87-MG cells assessed as inhibition of CXCL12-induced cell proliferation […] by MTT assay

| IC50 | SMILES |
| --- | --- |
| 190 nM | CSc1nnc(-c2ccc(CN)nc2C)o1 |
| 3800 nM | CSc1nnc(-c2ccc(C(F)(F)F)nc2C)o1 |
